Results from patent US6632981B1, “DNA sequences encoding polypeptides having beta-1,3-glucanase activity” (Novartis Finance Corporation, priority 1988, dated 2003).

Legend:
[1] = tested on: cucumber chitinase protein; experiment: Cucumber chitinase ELISA in transgenic plants carrying cucumber chitinase genomic constructs after leaf treatment; type: in vivo, tobacco; design: key: —: Indicates that sample has no detectable level of chitinase protein
Protocol: Once the transgenic plants are transferred to soil, they are grown 4-5 weeks before treatment. The following solutions are applied to the leaves with sterile paintbrushes:
3. Methyl benzo-1,2,3-thiadiazole-7-carboxylate. The solution is made by resuspending a wettable powder containing a formulation of the chemical with 25% active ingredient in sterile water at a concentration of 1 mg/ml.
4. Methyl 2,6-dichloroisonicotinate, prepared as above. Alternatively, 30 ul of 10 mM sodium phosphate buffer, pH 7.0, or 30 ul of the same buffer containing tobacco mosaic virus (50-100 pfu/30 ul) is applied to the leaves which have been sprinkled with carborundum. The buffers are distributed over the whole treated leaf by gentle rubbing.
The plants are allowed to continue to grow for seven days. The treated leaves are then harvested, frozen in liquid nitrogen and stored at −80° C. until they are assayed.
Frozen leaf tissue is ground in a mortar with a pestle in the presence of liquid nitrogen to produce a fine powder. 0.33 g of each tissue sample is added to 1 ml extraction buffer (50 mM Tris-HCl, pH 8.5, 0.2M 2-mercaptoethanol, 2 mM phenyl methyl sulfonyl fluoride, 2 mM benzamidine, 10 mM epsilon-aminocaproic acid, 1 mM leueptine) and the sample homogenized for one minute with an Ultra Turrax Mixer (shaft #S25N-8G, Tekmar Co. Cincinnati, Ohio). The samples are then centrifuged at 48,000×g for fifteen minutes at 4° C. and the supernatant removed from the pelleted material. The extracts are diluted at least 1:50 in ELISA diluent (101 mM sodium phosphate, pH 7.4, 140 mM sodium chloride, 0.05% Tween 20, 0.02% sodium azide, 1% BSA).
A microtiter plate is coated with monoclonal antibody specific to the cucumber chitinase protein at 2 ug/ml in borate-buffered saline (100 mM boric acid, 25mM sodium borate, 75 mM sodium chloride; pH 8.5) using 50 ul per well. The plate is incubated overnight at 4° C. The plate is washed with ELISA wash buffer (10 mM Tris-HCl, pH 8.0, 0.05% Tween 20, 3 mM sodium azide) and BSA blocking solution (10 mM sodium phosphate, pH 7.4, 140 mM sodium chloride, 0.02% sodium azide, 1% BSA) is added to completely cover each well. Incubation is for at least 30 minutes at room temperature.
The microtiter plate is washed with ELISA wash buffer and 50 ul of extract is added to the appropriate well. 50 ul of each of 10 chitinase protein standards (ranging from 0 ng/ml to 31.64 ng/ml) was also added to the appropriate well and the plate is incubated for two hours at 4° C. The plate is washed with ELISA wash buffer and 50 ul of rabbit polyclonal antibody to the cucumber chitainase protein (diluted 1:15,000 in ELISA diluent) is added to the well and incubated for one hour at 37° C. After washing with ELISA wash buffer, 50 ul of goat anti-rabbit conjugated to alkaline phosphatase (1:500 in ELISA diluent) is added to each well and incubated at 37° C. for one hour. The plate is then washed and 50 ul alkaline phosphatase substrate solution (0.6 mg/ml p-nitrophenyl phosphate in 0.5 mM magnesium chloride and 10% diethanolamine) is added to each well. After a 30 minute incubation at room temperature, 50 ul of 3N sodium hydroxide is added to each well to stop the reaction.
The plate is read at 405 nm and 492 nm on an HP Genenchem ELISA plate reader. The output values are expressed as A(405 nm)-A(492 nm)−0.092 to allow for correction of p-nitrophenyl phosphate as substrate. The chitinase standards for each plate are graphed logarithmically. The amount of chitinase protein in each sample is determined from the standard curve. If the amount of chitinase in any sample is close to the upper limit of the curve, the sample is assayed again at a greater dilution. Final results are expressed in the table below in ug chitinase per gram tissue.

[2] = tested on: chemically regulatable chimeric genes coding for GUS, AHAS or BT; experiment: Primer extension assay for mRNA of chemically regulatable chimeric genes; type: in vivo; settings: callus or regenerated plant material from transgenic plants; level proportional to amount of regulator applied
Protocol: 50 g of total RNA is lyophilized in a 500 l Eppendorf tube. The RNA is resuspended in 30 l of radiolabeled probe solution and heated to 70′ C. for 10 minutes. The tube is slowly cooled to 37° C. and allowed to incubate overnight. Without removing the tube from the 37° C. water bath, 2 l of 10×reverse-transcriptase buffer (500 mM Tris-HCl, pH 7.5, 400 mM KCl, 30 mM MgCl2), 1 l 5 mg/ml bovine serum albumin, 5 l 100 mM dithiothreitol, 5 l 10×dNTPs (10 mM of each dNTP in H2O), 3 l H 20, 2 l RNasin (80 units), and 2 l reverse transcriptase (400 units) are added and the reaction is incubated at 37° C. for 30 minutes. To stop the reaction, 5 l of 3 M sodium acetate, pH 5, and 150 l absolute ethanol are added. The tube is left at −20° C. for 30 minutes, the precipitate is collected by centrifugation, washed with 80% ethanol and allowed to air-dry. The precipitate is resuspended in 10-20 l of loading dye (90% formamide, 0.05% bromophenol blue, 0.05% xylene cyanol, 1 mM EDTA) and the extension products are separated on a 6% sequencing gel (Maniatis, T. et al., supra). Extension products are visualized by autoradiography.
Plant materials induced and harvested as in Examples 140 to 142 are assayed for the induction of mRNA species by the isolation of RNA and the primer extension assay as described in Example 6.
The level of mRNA is proportional to the amount of regulator applied.

COC(=O)c1cccc2nnsc12 [Methyl benzo-1,2,3-thiadiazole-7-carboxylate]
ELISA ASSAY RESULTS (ug chitinase/g tissue) ([1]; line Bam-1 (2001/BamChit), leaves harvested after seven days, water 0.066, buffer —): 3.000 ug chitinase/g tissue
ELISA ASSAY RESULTS (ug chitinase/g tissue) ([1]; line Bam-3 (2001/BamChit), seven days, water —, buffer —): 0.504 ug chitinase/g tissue
ELISA ASSAY RESULTS (ug chitinase/g tissue) ([1]; line Bam-4 (2001/BamChit), seven days, water —, buffer —): —
ELISA ASSAY RESULTS (ug chitinase/g tissue) ([1]; line Bam-8 (2001/BamChit), seven days, water —, buffer —): —
ELISA ASSAY RESULTS (ug chitinase/g tissue) ([1]; line Bam-9 (2001/BamChit), seven days, water —, buffer —): 33.885 ug chitinase/g tissue
ELISA ASSAY RESULTS (ug chitinase/g tissue) ([1]; line Bam-10 (2001/BamChit), seven days, water 0.059, buffer 0.084): 25.182 ug chitinase/g tissue
ELISA ASSAY RESULTS (ug chitinase/g tissue) ([1]; line Bam-12 (2001/BamChit), seven days, water —, buffer —): 1.349 ug chitinase/g tissue
ELISA ASSAY RESULTS (ug chitinase/g tissue) ([1]; line Bam-14 (2001/BamChit), seven days, water —, buffer —): 0.541 ug chitinase/g tissue
ELISA ASSAY RESULTS (ug chitinase/g tissue) ([1]; line Bam-15 (2001/BamChit), seven days, water —, buffer —): 3.366 ug chitinase/g tissue
ELISA ASSAY RESULTS (ug chitinase/g tissue) ([1]; line Bam-16 (2001/BamChit), seven days, water —, buffer —): 18.849 ug chitinase/g tissue
ELISA ASSAY RESULTS (ug chitinase/g tissue) ([1]; line Bam-17 (2001/BamChit), seven days, water —, buffer —): 2.997 ug chitinase/g tissue
ELISA ASSAY RESULTS (ug chitinase/g tissue) ([1]; line Bam-19 (2001/BamChit), seven days, water —, buffer —): 0.998 ug chitinase/g tissue
ELISA ASSAY RESULTS (ug chitinase/g tissue) ([1]; line Bam-21 (2001/BamChit), seven days, water —, buffer —): —
ELISA ASSAY RESULTS (ug chitinase/g tissue) ([1]; line Bam-23 (2001/BamChit), seven days, water —, buffer —): 0.782 ug chitinase/g tissue
ELISA ASSAY RESULTS (ug chitinase/g tissue) ([1]; line Bam-24 (2001/BamChit), seven days, water —, buffer —): 0.88 ug chitinase/g tissue
ELISA ASSAY RESULTS (ug chitinase/g tissue) ([1]; line Bam-25 (2001/BamChit), seven days, water —, buffer —): 18.145 ug chitinase/g tissue
ELISA ASSAY RESULTS (ug chitinase/g tissue) ([1]; line Bam-26 (2001/BamChit), seven days, water —, buffer —): 0.676 ug chitinase/g tissue
ELISA ASSAY RESULTS (ug chitinase/g tissue) ([1]; line Nco-2 (2001/NcoChit), seven days, water —, buffer —): —
ELISA ASSAY RESULTS (ug chitinase/g tissue) ([1]; line Nco-3 (2001/NcoChit), seven days, water —, buffer —): —
ELISA ASSAY RESULTS (ug chitinase/g tissue) ([1]; line Nco-5 (2001/NcoChit), seven days, water —, buffer —): —
ELISA ASSAY RESULTS (ug chitinase/g tissue) ([1]; line Nco-8 (2001/NcoChit), seven days, water —, buffer —): —
ELISA ASSAY RESULTS (ug chitinase/g tissue) ([1]; line Nco-9 (2001/NcoChit), seven days, water —, buffer —): —
ELISA ASSAY RESULTS (ug chitinase/g tissue) ([1]; line Nco-10 (2001/NcoChit), seven days, water —, buffer —): 0.047 ug chitinase/g tissue
ELISA ASSAY RESULTS (ug chitinase/g tissue) ([1]; line Nco-11 (2001/NcoChit), seven days, water —, buffer —): —
ELISA ASSAY RESULTS (ug chitinase/g tissue) ([1]; line Nco-15 (2001/NcoChit), seven days, water —, buffer —): —
ELISA ASSAY RESULTS (ug chitinase/g tissue) ([1]; line Nco-16 (2001/NcoChit), seven days, water 0.555, buffer 0.566): 0.784 ug chitinase/g tissue
ELISA ASSAY RESULTS (ug chitinase/g tissue) ([1]; line Nco-17 (2001/NcoChit), seven days, water —, buffer —): —
ELISA ASSAY RESULTS (ug chitinase/g tissue) ([1]; line Sal-2 (2001/SalChit), seven days, water —, buffer —): 0.117 ug chitinase/g tissue
ELISA ASSAY RESULTS (ug chitinase/g tissue) ([1]; line Sal-3 (2001/SalChit), seven days, water —, buffer —): 0.060 ug chitinase/g tissue
ELISA ASSAY RESULTS (ug chitinase/g tissue) ([1]; line Sal-4 (2001/SalChit), seven days, water —, buffer —): 0.537 ug chitinase/g tissue
ELISA ASSAY RESULTS (ug chitinase/g tissue) ([1]; line Sal-5 (2001/SalChit), seven days, water —, buffer —): 0.229 ug chitinase/g tissue
ELISA ASSAY RESULTS (ug chitinase/g tissue) ([1]; line Sal-7 (2001/SalChit), seven days, water —, buffer —): 0.377 ug chitinase/g tissue
ELISA ASSAY RESULTS (ug chitinase/g tissue) ([1]; line Sal-8 (2001/SalChit), seven days, water —, buffer —): —
ELISA ASSAY RESULTS (ug chitinase/g tissue) ([1]; line Sal-9 (2001/SalChit), seven days, water —, buffer —): 0.553 ug chitinase/g tissue
ELISA ASSAY RESULTS (ug chitinase/g tissue) ([1]; line Sal-11 (2001/SalChit), seven days, water —, buffer —): —
ELISA ASSAY RESULTS (ug chitinase/g tissue) ([1]; line Sal-12 (2001/SalChit), seven days, water —, buffer —): —
ELISA ASSAY RESULTS (ug chitinase/g tissue) ([1]; line Sal-13 (2001/SalChit), seven days, water —, buffer —): —
ELISA ASSAY RESULTS (ug chitinase/g tissue) ([1]; line Sal-14 (2001/SalChit), seven days, water —, buffer —): —
ELISA ASSAY RESULTS (ug chitinase/g tissue) ([1]; line Sal-15 (2001/SalChit), seven days, water —, buffer —): 0.038 ug chitinase/g tissue
level of mRNA of the chimeric gene (GUS, AHAS or BT primer), primer extension assay [2]: elevated levels of mRNA
